This note sets out measurements from US10034898B2, “Methods and systems for treatment of inflammatory diseases with nitric oxide” (priority 2012, dated 2018).

For experiment [1], the system named is micro-capillary blood flow to skin. The experiment is described as follows: Laser Doppler capillary blood flow study, Example 5 (closed Hilltop chamber on forearm). The class given is in vivo, humans. The settings on record: applied to the skin at 1/10% in alcohol. The method, then:
This example illustrates delivery of nitric oxide formulations similar to those discussed herein in humans. In these studies, laser Doppler studies were performed on three human female subjects. […] The formulations used produce positive, almost immediate results when applied to the skin which, in these studies, was manifested by vasodilatation of the cutaneous vascular system.
While nitric oxide has many physiological effects, the purpose of these studies was to measure physiological effects that would be relatively easy to determine, and which would be noninvasive. […] Nitric oxide is capable of […] the capillary bed, and thus, laser Doppler was selected.
The formulation used in these studies contained nitric oxide dispersed in a lipid matrix. […] This provided a stable measuring device as determined by multiple normal evaluations of the capillary blood flow without treatment of nitric oxide.
A known positive control, methyl nicotinate, was applied to the skin at a concentration of 1/10% in alcohol. […] The laser Doppler device accurately measured these parameters.
In these studies, the participants were healthy females aged 30 to 55 years. They were in good health as determined by the medical history and were not taking any prescription medications. All study participants read and signed the informed consent statement prior to any study procedures being performed. […]

Experiment [2] deals with capillary circulation of the skin. The experiment is described as follows: Laser Doppler circulation study in five human subjects, Example 7. The class given is in vivo. As to conditions: positive control formulation containing 0.1% methyl nicotinate, vs untreated skin. An excerpt:
This example illustrates delivery of nitric oxide formulations to five human subjects, using procedures and formulations similar to those discussed in Example 5. Each person served as their own control for the testing. A Moor Instruments Laser Doppler was used to determine circulation. […] The formulations used produce positive, almost immediate results when applied to the skin which, in these studies, was manifested by vasodilatation of the cutaneous vascular system.
For each subject, the following creams were applied: a negative control formulation (containing no NO), 0.010 gram of a 10,000 ppm NO formulation, 0.020 gram of a 10,000 ppm NO formulation, and a positive control formulation containing 0.1% methyl nicotinate. The formulations were prepared using procedures similar to those discussed in Example 1.

As for `COC(=O)c1cccnc1` [methyl nicotinate], the “laser Doppler response of positive control” value in experiment [1] is “rapid response typical of the vasodilator”. Besides, in experiment [2], the vasodilatation entry is reported as “vasodilatation was observed”.
